Measurements published in PMC11396062, “The n-Butanol Extract Obtained from the Inner Bark of Tabebuia rosea (Bertol.) DC, Specioside, and Catalposide Induce Leukemia Cell Apoptosis in the Presence of Apicidin” (Molecules, 2024).
≈ marks a conversion by molar mass, not a printed value.

Legend:
Assay type in all cases: cell-based, human
Jurkat cells = assay: MTT cell viability assay, Jurkat cells; conditions: for IC50: Homo sapiens, Jurkat, MTT, n = 3; for SI (selectivity index): IC50 PBMC / IC50 Jurkat
Procedure: Jurkat and THP-1 cell lines were purchased from the American Type Culture Collection (ATCC, Rockville, MD, USA); Jurkat is a human lymphocytic cell line representing acute T-cell leukemia, and THP-1 is a monocytic cell line that represents acute myelogenous leukemia (AML). […] Cat Nos. […] The cells were maintained at 37 °C in a humidified atmosphere with 5% CO2. The culture medium was exchanged with fresh medium every 2-3 days. Peripheral blood mononuclear cells (PBMCs) were isolated from normal human venous blood. Further, 10 milliliters of human blood was mixed with 10 mL of RPMI-1640 containing 50 μL of heparin and gradually poured over 1 mL of HISTOPAQUE®-1119 (Sigma). The plasma was removed by centrifugation at 3000 rpm for 30 min. The peripheral blood mononuclear cell-containing layer was collected with a pipette and diluted in 4 mL of PBS. PBMCs were harvested by centrifugation at 1500 rpm for 10 min at room temperature, resuspended in RPMI-1640 with 10% FBS, and incubated at 37 °C in 5% CO2 humidified air. […] Doxorubicin was used as a reference standard drug (positive control). After treatment, the medium was discarded; 200 μL of RPMI 1640 medium without phenol red containing 0.5 mg/mL MTT (Sigma Chemical Co., Saint Louis, MO, USA; Cat. No. […] The plates were incubated for four hours at 37 °C with 5% CO2 in a humidified atmosphere. The medium was discarded, and 100 μL of DMSO was added to solubilize the formazan crystals. The absorbance was measured with an ELISA microplate reader at 492 nm (ELx800; BioTek Instruments Inc., Winooski, VT, USA). The percentage of viable cells was calculated on the basis of the nontreated control (taken as 100%). […] Three independent assays were performed, each in triplicate. The selectivity index corresponds to the ratio of the IC50 value calculated for the activity of synthesized compounds on a regular cell line (PBMCs) to that of the IC50 calculated for cancer cell lines (Jurkat and THP-1). Values greater than two were optimal for an efficient selectivity index.

THP-1 cells = assay: Flow cytometric apoptosis, Annexin V-CF647/7-AAD; conditions: THP-1, 24 h (Figure S5)
Procedure: In 96-well plates, 8 × 10^4 cells were treated with 25, 50, and 100 µg/mL extract and 400 µM doxorubicin (positive control) for 24 and 48 h. The cells were washed with 1X PBS, and apoptotic cells were detected by staining with 100 µL of Annexin V-CF647 and 5 µL of the 7-AAD Apoptosis Annexin Red Kit (FCCH100108 FlowCellect, Millipore, Darmstadt, Germany). The cells were incubated at room temperature for 15 min in the dark and analyzed on a Guava Millipore flow cytometer (Merck Millipore, Bedford, MA, USA) using InCyte software (version 3.1, Merck Millipore). The percentage of annexin V-positive cells was evaluated.

BAX = assay: Western blot Bax protein; conditions: THP-1, catalposide 44 and 66 μg/mL, specioside 20, 40 and 60 μg/mL
Procedure: (§1) THP-1 cells were seeded in 24-well plates (5 × 10^5 cells/well), and after 24 h of incubation, they were pretreated with 1 µM apicidin for 24 h and then treated with different concentrations of the n-butanol extract, catalposide, and specioside for 24 h. After treatment, the cells were lysed with an Abcam protein extraction kit (ab270054), and a phosphatase inhibitor cocktail (ab201115) was added. The supernatants of the cell extracts were quantified with a BCA protein assay (Thermo Scientific Pierce #23227, Waltham, MA, USA). Equivalent amounts of protein were electrophoresed on 10% SDS polyacrylamide gels and then electroblotted onto 0.45 μm polyvinylidene difluoride (PVDF) membranes (GE Healthcare, Chicago, IL, USA). […] The signals were detected using SuperSignal™ West Pico PLUS Chemiluminescent Substrate (Thermo Scientific Pierce cat 34577) and analyzed with a ChemiDoc XRS+ system (Bio-Rad, Hercules, CA, USA). The density of each band was measured using ImageJ software V. 1.53n, 7 November 2021 (NIH, Bethesda, MD, USA), and the protein levels were normalized to the GAPDH levels. The data are expressed as the means of three independent experiments. […]

Bcl-2 = assay: Western blot Bcl-2 protein; conditions: THP-1, catalposide 44 μg/mL, specioside 40 μg/mL, APC pretreatment (Figure 9)
Procedure: as §1

JNK = assay: Western blot JNK phosphorylation; conditions: THP-1, 24 h; specioside all concentrations except 60 μg/mL in presence of APC
Procedure: as §1

ERK = assay: Western blot ERK phosphorylation; conditions: THP-1, 24 h
Procedure: as §1

Row | IC50 (Jurkat cells; 12 h) | IC50 (Jurkat cells; 24 h) | IC50 (Jurkat cells; 48 h) | SMILES | SI (selectivity index) (Jurkat cells; 12 h) | SI (selectivity index) (Jurkat cells; 24 h) | SI (selectivity index) (Jurkat cells; 48 h) | apoptosis compared with control (THP-1 cells) | expression of Bax protein with APC pretreatment (BAX) | antiapoptotic protein Bcl-2 (Western blot) (Bcl-2) | phosphorylation of the JNK protein compared with control (JNK) | phosphorylation of the ERK protein compared with control (ERK)
1 | 107 ± 5.3 µg/mL (≈ 221 µM) | 92.8 ± 1.5 µg/mL (≈ 192 µM) | 71.2 ± 2.8 µg/mL (≈ 148 µM) | O=C(O[C@H]1[C@@H]2C=CO[C@@H](O[C@@H]3O[C@H](CO)[C@@H](O)[C@H](O)[C@H]3O)[C@@H]2[C@@]2(CO)O[C@@H]12)c1ccc(O)cc1 [Catalposide, catalposide] | 1.18 | 0.94 | 0.61 | increased apoptosis | increased | decrease | did not significantly change | decreased protein phosphorylation but not significantly
2 | 137.7 ± 1.3 µg/mL (≈ 271 µM) | 81.7 ± 3.5 µg/mL (≈ 161 µM) | 68.9 ± 2.1 µg/mL (≈ 135 µM) | O=C(/C=C/c1ccc(O)cc1)O[C@H]1[C@@H]2C=CO[C@@H](O[C@@H]3O[C@H](CO)[C@@H](O)[C@H](O)[C@H]3O)[C@@H]2[C@@]2(CO)O[C@@H]12 [Specioside] | 1.20 | 0.86 | 0.79 | increased apoptosis | increased | decrease | significantly phosphorylated | did not significantly change
